Reference: ChEMBL document CHEMBL1128085, “Asymmetric synthesis of FR165914: A novel 3-adrenergic agonist with a benzocycloheptene structure” (Bioorg Med Chem Lett, 1995)

What was measured:
[1] = molecular target: Beta-3 adrenergic receptor (Rattus norvegicus, UniProt P26255); test: Agonistic activity against Beta-3 adrenergic receptor in rat colon; assay type: functional
[2] = molecular target: Beta-1 adrenergic receptor (Cavia porcellus, UniProt B0FL73); test: Agonistic activity against Beta-1 adrenergic receptor in guinea pig atrium; assay type: functional, tissue-based, Cardiac atrium
Chain of Beta-1 adrenergic receptor (B0FL73 whole entry): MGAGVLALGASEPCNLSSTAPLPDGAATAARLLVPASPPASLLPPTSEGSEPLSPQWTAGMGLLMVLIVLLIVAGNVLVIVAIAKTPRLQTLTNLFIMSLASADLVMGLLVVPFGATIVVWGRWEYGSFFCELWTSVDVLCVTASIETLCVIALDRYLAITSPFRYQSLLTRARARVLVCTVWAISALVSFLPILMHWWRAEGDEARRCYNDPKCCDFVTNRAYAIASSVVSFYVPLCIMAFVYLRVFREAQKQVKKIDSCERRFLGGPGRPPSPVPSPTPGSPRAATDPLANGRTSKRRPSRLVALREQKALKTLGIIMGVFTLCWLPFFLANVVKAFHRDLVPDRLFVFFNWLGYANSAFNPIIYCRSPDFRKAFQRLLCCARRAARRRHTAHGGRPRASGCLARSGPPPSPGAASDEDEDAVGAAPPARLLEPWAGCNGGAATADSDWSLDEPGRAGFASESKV

Chain of Beta-3 adrenergic receptor (P26255 whole entry): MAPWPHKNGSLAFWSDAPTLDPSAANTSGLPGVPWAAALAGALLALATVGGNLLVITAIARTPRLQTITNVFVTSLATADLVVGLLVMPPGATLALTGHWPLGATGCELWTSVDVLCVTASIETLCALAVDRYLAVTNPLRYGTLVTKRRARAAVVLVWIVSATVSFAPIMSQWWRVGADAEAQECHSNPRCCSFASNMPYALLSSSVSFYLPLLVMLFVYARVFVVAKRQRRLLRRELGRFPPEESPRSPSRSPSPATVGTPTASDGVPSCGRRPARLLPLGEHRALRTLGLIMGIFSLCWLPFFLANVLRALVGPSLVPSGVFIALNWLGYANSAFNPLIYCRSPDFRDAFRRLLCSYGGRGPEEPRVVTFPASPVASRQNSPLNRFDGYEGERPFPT

IC50 [1]: 6 nM
EC50 [2]: > 10000 nM
Compound: O=C(O)C1(C(=O)O)Oc2cc3c(cc2O1)C[C@@H](NC[C@H](O)c1cccc(Cl)c1)CCC3
